Source: patent US20100144779A1, “Marine Alkalod Makaluvamines and Derivatives Thereof” (THE UAB RESEARCH FOUNDATION, priority 2007, published 2010)

Legend:
Assay in all cases: NCI60 cell line screen (SRB)
Type in all cases: cell-based, human
[1] = test system: 786-0; details: Homo sapiens; 786-0, Renal Cancer; 48 h
Procedure, shortened: (§1)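 Percentage growth was derived as [(Ti−Tz)/(C−Tz)]×100 when Ti≥Tz, otherwise [(Ti−Tz)/Tz]×100, from SRB absorbance. Adherent cells, cultured in RPMI 1640 plus 5% FBS, were drug-treated for 48 h after a 24 h attachment period.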

[2] = test system: A549/ATCC; details: Homo sapiens, Non-Small Cell Lung Cancer, 48 h
Procedure, shortened: as §1

[3] = test system: ACHN; details: Homo sapiens, Renal Cancer, 48 h
Procedure, shortened: as §1

[4] = test system: CAKI-1; details: Homo sapiens; CAKI-1, Renal Cancer; 48 h
Procedure, shortened: as §1

[5] = test system: COLO 205; details: Homo sapiens; COLO 205, Colon Cancer; 48 h
Procedure, shortened: as §1

[6] = test system: HCT-15; details: Homo sapiens; HCT-15, Colon Cancer; 48 h
Procedure, shortened: as §1

[7] = test system: HOP-62; details: Homo sapiens; HOP-62, Non-Small Cell Lung Cancer; 48 h
Procedure, shortened: as §1

[8] = test system: HS 578T; details: Homo sapiens, Breast Cancer, 48 h
Procedure, shortened: as §1

[9] = test system: IGROV1; details: Homo sapiens, IGROV-1; IGROV1, Ovarian Cancer; 48 h
Procedure, shortened: as §1

[10] = test system: M14; details: Homo sapiens; M14, Melanoma; 48 h
Procedure, shortened: as §1

[11] = test system: NCI-H226; details: Homo sapiens; NCI-H226, Non-Small Cell Lung Cancer; 48 h
Procedure, shortened: as §1

[12] = test system: NCI-H23; details: Homo sapiens; NCI-H23, Non-Small Cell Lung Cancer; 48 h
Procedure, shortened: as §1

[13] = test system: NCI/ADR-RES; details: Homo sapiens, Breast Cancer, 48 h
Procedure, shortened: as §1

[14] = test system: NCIH332M; details: Homo sapiens, NCI-H332M, Non-Small Cell Lung Cancer, 48 h
Procedure, shortened: as §1

[15] = test system: OVCAR5; details: Homo sapiens, OVCAR-5; OVCAR5, Ovarian Cancer; 48 h
Procedure, shortened: as §1

[16] = test system: OVCAR8; details: Homo sapiens, OVCAR-8; OVCAR8, Ovarian Cancer; 48 h
Procedure, shortened: as §1

[17] = test system: RXF 393; details: Homo sapiens; RXF 393, Renal Cancer; 48 h
Procedure, shortened: as §1

[18] = test system: SK-MEL-28; details: Homo sapiens; SK-MEL-28, Melanoma; 48 h
Procedure, shortened: as §1

[19] = test system: SK-MEL-2; details: Homo sapiens; SK-MEL-2, Melanoma; 48 h
Procedure, shortened: as §1

[20] = test system: SK-MEL-5; details: Homo sapiens; SK-MEL-5, Melanoma; 48 h
Procedure, shortened: as §1

[21] = test system: SNB-19; details: Homo sapiens; SNB-19, CNS Cancer; 48 h
Procedure, shortened: as §1

[22] = test system: SNB-75; details: Homo sapiens; SNB-75, CNS Cancer; 48 h
Procedure, shortened: as §1

[23] = test system: SW-620; details: Homo sapiens; SW-620, Colon Cancer; 48 h
Procedure, shortened: as §1

[24] = test system: T-47D; details: Homo sapiens, T47D, Breast Cancer, 48 h
Procedure, shortened: as §1

[25] = test system: TK-10; details: Homo sapiens; TK-10, Renal Cancer; 48 h
Procedure, shortened: as §1

[26] = test system: U251; details: Homo sapiens, U-251; U251, CNS Cancer; 48 h
Procedure, shortened: as §1

Q: Which results are given for `O=C(O)C(F)(F)F.O=C1C(NCc2ccc(F)cc2)=CC2=NCCc3c[nH]c1c32` [Compound 28]?
A: GI50 [1]: 3450 nM; GI50 [2]: 1440 nM; GI50 [3]: 2040 nM; GI50 [4]: 329 nM; GI50 [5]: 365 nM; GI50 [6]: 1480 nM; GI50 [7]: 3790 nM; GI50 [8]: 44000 nM; GI50 [9]: 1430 nM; GI50 [10]: 1440 nM; GI50 [11]: 2340 nM; GI50 [12]: 521 nM; GI50 [13]: 3110 nM; GI50 [14]: 1170 nM; GI50 [15]: 2370 nM; GI50 [16]: 1970 nM; GI50 [17]: ≤ 10 nM; GI50 [18]: 5780 nM; GI50 [19]: 4530 nM; GI50 [20]: 325 nM; GI50 [21]: 1790 nM; GI50 [22]: 5200 nM; GI50 [23]: 1820 nM; GI50 [24]: 633 nM; GI50 [25]: 3190 nM; GI50 [26]: 1990 nM
